Source: patent publication US20260262643A1, “HERBICIDAL BENZOXAZINES” (FMC CORPORATION, priority 2022, published 2026)

What was measured:
[1] = tested on: barnyardgrass; assay: Test C preemergence; type: in vivo, Echinochloa crusgalli; conditions: for Barnyardgrass plant response rating: preemergence; for Plant response rating, Barnyardgrass: Preemergence
Procedure, shortened: (§1)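 Soil-applied (pre) and foliar (post, 1–2 leaf, 2–10 cm) sprays; surfactant-containing non-phytotoxic solvent vehicle; loam/sand substrate. Readout: visual % control at 10 d, greenhouse, versus untreated.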

[2] = tested on: blackgrass; assay: Test C preemergence; type: in vivo, Alopecurus myosuroides; conditions: for Blackgrass plant response rating: preemergence; for Plant response rating, Blackgrass: Preemergence
Procedure, shortened: as §1

[3] = tested on: corn; assay: Test C preemergence; type: in vivo, Zea mays; conditions: for Corn plant response rating: preemergence, 0 to 100 scale (0 no effect, 100 complete control)
Procedure, shortened: as §1

[4] = tested on: green foxtail; assay: Test C preemergence; type: in vivo, Setaria viridis; conditions: for Foxtail, Green plant response rating: preemergence, 0 to 100 scale (0 no effect, 100 complete control)
Procedure, shortened: as §1

[5] = tested on: kochia; assay: Test C preemergence; type: in vivo, Bassia scoparia; conditions: for Kochia plant response rating: preemergence, 0 to 100 scale (0 no effect, 100 complete control)
Procedure, shortened: as §1

[6] = tested on: oat, wild; assay: Test C preemergence; type: in vivo, Avena fatua; conditions: for Oat, Wild plant response rating: preemergence, 0 to 100 scale (0 no effect, 100 complete control)
Procedure, shortened: as §1

[7] = tested on: pigweed, palmer; assay: Test C preemergence; type: in vivo, Amaranthus palmeri; conditions: for Pigweed, Palmer plant response rating: preemergence, 0 to 100 scale (0 no effect, 100 complete control)
Procedure, shortened: as §1

[8] = tested on: ragweed; assay: Test C preemergence; type: in vivo, Ambrosia artemisiifolia; conditions: for Ragweed plant response rating: preemergence, 0 to 100 scale (0 no effect, 100 complete control)
Procedure, shortened: as §1

[9] = tested on: ryegrass, Italian; assay: Test C preemergence; type: in vivo, Lolium multiflorum; conditions: for Ryegrass, Italian plant response rating: preemergence, 0 to 100 scale (0 no effect, 100 complete control)
Procedure, shortened: as §1

[10] = tested on: soybean; assay: Test C preemergence; type: in vivo, Glycine max; conditions: for Soybean plant response rating: preemergence, 0 to 100 scale (0 no effect, 100 complete control)
Procedure, shortened: as §1

[11] = tested on: wheat; assay: Test C preemergence; type: in vivo, Triticum aestivum; conditions: for Wheat plant response rating: preemergence, 0 to 100 scale (0 no effect, 100 complete control)
Procedure, shortened: as §1

[12] = tested on: barnyardgrass; assay: Test C postemergence; type: in vivo, Echinochloa crusgalli; conditions: 10 days
Procedure, shortened: as §1

[13] = tested on: blackgrass; assay: Test C postemergence; type: in vivo, Alopecurus myosuroides; conditions: 10 days
Procedure, shortened: as §1

[14] = tested on: corn; assay: Test C postemergence; type: in vivo, Zea mays; conditions: 10 days
Procedure, shortened: as §1

[15] = tested on: green foxtail; assay: Test C postemergence; type: in vivo, Setaria viridis; conditions: 10 days
Procedure, shortened: as §1

[16] = tested on: kochia; assay: Test C postemergence; type: in vivo, Bassia scoparia; conditions: 10 days
Procedure, shortened: as §1

[17] = tested on: oat, wild; assay: Test C postemergence; type: in vivo, Avena fatua; conditions: 10 days
Procedure, shortened: as §1

[18] = tested on: pigweed, palmer; assay: Test C postemergence; type: in vivo, Amaranthus palmeri; conditions: 10 days
Procedure, shortened: as §1

[19] = tested on: ragweed; assay: Test C postemergence; type: in vivo, Ambrosia artemisiifolia; conditions: 10 days
Procedure, shortened: as §1

[20] = tested on: ryegrass, Italian; assay: Test C postemergence; type: in vivo, Lolium multiflorum; conditions: 10 days
Procedure, shortened: as §1

[21] = tested on: soybean; assay: Test C postemergence; type: in vivo, Glycine max; conditions: 10 days
Procedure, shortened: as §1

[22] = tested on: wheat; assay: Test C postemergence; type: in vivo, Triticum aestivum; conditions: 10 days
Procedure, shortened: as §1

[23] = tested on: galium; assay: Test C postemergence; type: in vivo, Galium aparine; conditions: 10 days
Procedure, shortened: as §1

[24] = tested on: horseweed; assay: Test C postemergence; type: in vivo, Erigeron canadensis; conditions: 10 days
Procedure, shortened: as §1

[25] = tested on: barnyardgrass; assay: Test D flooded paddy test; type: in vivo, Echinochloa crus-galli; conditions: 250 g ai/ha, applied to paddy water, visual rating after 13 to 14 days, scale 0 to 100 (0 no effect, 100 complete control)
Procedure, shortened: (§2)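 Post-flood water application at the 2-leaf stage; 3 cm flood depth kept constant; visual control rating 0–100 after 13–14 days greenhouse growth.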

[26] = tested on: ducksalad; assay: Test D flooded paddy test; type: in vivo, Heteranthera limosa; conditions: 250 g ai/ha, applied to paddy water, visual rating after 13 to 14 days, scale 0 to 100 (0 no effect, 100 complete control)
Procedure, shortened: as §2

[27] = tested on: rice; assay: Test D flooded paddy test; type: in vivo, Oryza sativa; conditions: 250 g ai/ha, applied to paddy water, visual rating after 13 to 14 days, scale 0 to 100 (0 no effect, 100 complete control)
Procedure, shortened: as §2

[28] = tested on: sedge, umbrella; assay: Test D flooded paddy test; type: in vivo, Cyperus difformis; conditions: 250 g ai/ha, applied to paddy water, visual rating after 13 to 14 days, scale 0 to 100 (0 no effect, 100 complete control)
Procedure, shortened: as §2

[29] = 500 g ai/ha, 0 to 100 scale (0 no effect, 100 complete control)
[30] = 125 g ai/ha, 0 to 100 scale, 0 no effect, 100 complete control
[31] = Preemergence, 125 g ai/ha, 0 to 100 scale, 0 no effect, 100 complete control
[32] = 500 g ai/ha, postemergence, 0 to 100 scale (0 no effect, 100 complete control)
[33] = Postemergence, 125 g ai/ha, 0 to 100 scale (0 no effect, 100 complete control)
[34] = 500 g ai/ha, visual rating after 10 days, 0 to 100 scale (0 no effect, 100 complete control)
[35] = Test C, 125 g ai/ha, 0 to 100 scale (0 no effect, 100 complete control)
[36] = 125 g ai/ha, postemergence, 0 to 100 scale, 0 no effect, 100 complete control
[37] = Postemergence, 500 g ai/ha, visual 0 to 100 scale (0 no effect, 100 complete control)

CCOC[C@H]1CN(C(=O)c2cc(-n3cnc(C(C)C)n3)ccc2OC)c2cccc(Cl)c2O1 [Compound 341]
Barnyardgrass plant response rating [1, 29]: 100 | Plant response rating, Barnyardgrass [1, 30]: 90 | Blackgrass plant response rating [2, 29]: 80 | Plant response rating, Blackgrass [2, 30]: 20 | Corn plant response rating ([3]; 500 g ai/ha): 30 | Plant response rating, Corn [3, 31]: 20 | Foxtail, Green plant response rating ([4]; 500 g ai/ha): 100 | Plant response rating, Foxtail, Green [4, 31]: 100 | Kochia plant response rating ([5]; 500 g ai/ha): 100 | Plant response rating, Kochia [5, 31]: 100 | Oat, Wild plant response rating ([6]; 500 g ai/ha): 80 | Plant response rating, Oat, Wild [6, 31]: 50 | Pigweed, Palmer plant response rating ([7]; 500 g ai/ha): 100 | Plant response rating, Pigweed, Palmer [7, 31]: 100 | Ragweed plant response rating ([8]; 500 g ai/ha): 100 | Plant response rating, Ragweed [8, 31]: 80 | Ryegrass, Italian plant response rating ([9]; 500 g ai/ha): 100 | Plant response rating, Ryegrass, Italian [9, 31]: 80 | Soybean plant response rating ([10]; 500 g ai/ha): 60 | Plant response rating, Soybean [10, 31]: 100 | Wheat plant response rating ([11]; 500 g ai/ha): 30 | Plant response rating, Wheat [11, 31]: 30 | Plant response rating, Barnyardgrass [12, 32]: 70 | Plant response rating, Barnyardgrass [12, 33]: 20 | Plant response rating, Blackgrass [13, 32]: 50 | Plant response rating, Blackgrass [13, 33]: 10 | Plant response rating, Corn [14, 32]: 80 | Plant response rating, Corn [14, 33]: 0 | Plant response rating, Foxtail, Green [15, 32]: 70 | Plant response rating, Foxtail, Green [15, 33]: 30 | Plant response rating, Kochia [16, 32]: 90 | Plant response rating, Kochia [16, 33]: 80 | Plant response rating, Oat, Wild [17, 32]: 20 | Plant response rating, Oat, Wild [17, 33]: 10 | Plant response rating, Pigweed, Palmer [18, 32]: 100 | Plant response rating, Pigweed, Palmer [18, 33]: 80 | Plant response rating, Ragweed [19, 32]: 90 | Plant response rating, Ragweed [19, 33]: 60 | Plant response rating, Ryegrass, Italian [20, 32]: 60 | Plant response rating, Ryegrass, Italian [20, 33]: 30 | Plant response rating, Soybean [21, 32]: 100 | Plant response rating, Soybean [21, 33]: 100 | Plant response rating, Wheat [22, 32]: 20 | Plant response rating, Wheat [22, 33]: 10 | Plant response rating, Galium [23, 32]: 100 | Plant response rating, Galium [23, 33]: 90 | Plant response rating, Horseweed [24, 32]: 60 | Plant response rating, Horseweed [24, 33]: 60 | Plant response rating, Barnyardgrass (Flood) [25]: 25 | Plant response rating, Ducksalad (Flood) [26]: 70 | Plant response rating, Rice (Flood) [27]: 0 | Plant response rating, Sedge, Umbrella (Flood) [28]: 90

Cc1ccc(-n2cnc(CC3CC3)n2)cc1C(=O)N1C[C@H](C)Oc2c(Cl)cccc21 [Compound 273]
Plant response rating, Barnyardgrass [1, 34]: 100 | Barnyardgrass plant response rating [1, 35]: 40 | Plant response rating, Blackgrass [2, 34]: 50 | Blackgrass plant response rating [2, 35]: 0 | Corn plant response rating ([3]; 500 g ai/ha): 10 | Corn plant response rating ([3]; Test C, 125 g ai/ha): 0 | Foxtail, Green plant response rating ([4]; 500 g ai/ha): 100 | Foxtail, Green plant response rating ([4]; Test C, 125 g ai/ha): 100 | Kochia plant response rating ([5]; 500 g ai/ha): 90 | Kochia plant response rating ([5]; Test C, 125 g ai/ha): 60 | Oat, Wild plant response rating ([6]; 500 g ai/ha): 80 | Oat, Wild plant response rating ([6]; Test C, 125 g ai/ha): 20 | Pigweed, Palmer plant response rating ([7]; 500 g ai/ha): 100 | Pigweed, Palmer plant response rating ([7]; Test C, 125 g ai/ha): 90 | Ragweed plant response rating ([8]; 500 g ai/ha): 0 | Ragweed plant response rating ([8]; Test C, 125 g ai/ha): 0 | Ryegrass, Italian plant response rating ([9]; 500 g ai/ha): 90 | Ryegrass, Italian plant response rating ([9]; Test C, 125 g ai/ha): 70 | Soybean plant response rating ([10]; 500 g ai/ha): 70 | Soybean plant response rating ([10]; Test C, 125 g ai/ha): 10 | Wheat plant response rating ([11]; 500 g ai/ha): 40 | Wheat plant response rating ([11]; Test C, 125 g ai/ha): 0 | Plant response rating, Barnyardgrass [12, 36]: 30 | Plant response rating, Barnyardgrass [12, 37]: 70 | Plant response rating, Blackgrass [13, 36]: 10 | Plant response rating, Blackgrass [13, 37]: 80 | Plant response rating, Corn [14, 36]: 10 | Plant response rating, Corn [14, 37]: 30 | Plant response rating, Foxtail, Green [15, 36]: 40 | Plant response rating, Foxtail, Green [15, 37]: 90 | Plant response rating, Kochia [16, 36]: 70 | Plant response rating, Oat, Wild [17, 36]: 0 | Plant response rating, Pigweed, Palmer [18, 36]: 90 | Plant response rating, Ragweed [19, 36]: 40 | Plant response rating, Ryegrass, Italian [20, 36]: 0 | Plant response rating, Soybean [21, 36]: 100 | Plant response rating, Wheat [22, 36]: 10 | Plant response rating, Galium [23, 36]: 70 | Plant response rating, Galium [23, 37]: 100 | Plant response rating, Horseweed [24, 36]: 0 | Plant response rating, Horseweed [24, 37]: 40 | Plant response rating, Barnyardgrass (Flood) [25]: 0 | Plant response rating, Ducksalad (Flood) [26]: 15 | Plant response rating, Rice (Flood) [27]: 0 | Plant response rating, Sedge, Umbrella (Flood) [28]: 40
